Results from patent US8691183B2, “Means for the detection and treatment of prostate cells” (Eberhard-Karls-Universitaet Tuebingen Universitaetsklinikum, priority 2008, dated 2014).

What was measured:
[1] = tested on: PC-3 prostate carcinoma cells; experiment: Confocal laser scanning microscopy (CLSM) of cellular uptake; assay type: cell-based, human; conditions: 20 minutes incubation, 10 μg/ml
Method: (§1) The cells were grown to 80% confluency at 37° C., 5% CO2 (vol/vol) in 4-well plates (NUNC, Wiesbaden, Germany) with about 300,000 cells per well.
(§2) U373 human glioma cells, human prostate carcinoma cells PC3 and LNCaP, human Jurkat lymphoma cells, and human colon carcinoma cells Colo205 were grown in RPMI1640 ready mix medium containing L-glutamine and 10% fetal bovine serum (FBS)-gold (PAA Laboratories, Pasching, Austria). U2OS human osteosarcoma cells and HeLa human cervix carcinoma cells were grown in high glucose Dulbeccos modified Eagle's medium containing GlutaMax™ and pyrovate and 10% FBS-gold. Healthy human prostate cells (CC2555, Lonza, Verviers, Belgium) were cultivated in prostate endothelial cell growth medium (PrEGM, Lonza, Verviers, Belgium).
(§3) The compounds 1, 2 and 4 were dissolved at 1 mg/ml in pure ethanol (Riedel de Haen, Sigma-Aldrich, Taufkirchen, Germany) and then diluted in the appropriate medium for the cells to 10 μg/ml of conjugate and 1% ethanol. The cells were incubated at 37° C. in an atmosphere of 5% CO2 for 20 minutes with the compounds. After this, the cells were rinsed three times with medium and then incubated with medium again. This experiment was also performed with free sulforhodamine B with a corresponding amount.
The compound 10 was dissolved in culture medium (260 μM). Lys(FITC)-aminobourgeonal (compound 7) was dissolved in culture medium with 1% ethanol (260 μM). The cells were incubated for 20 minutes (compound 10) and for 2 days (compounds 7 and 10). This assay was also performed with free FITC. After the incubation the cells were rinsed three times with medium and again incubated in medium. Propidium iodide (PI) (molecular probes, Eugene, Oreg., USA) was added to stain death cells.
(§4) The confocal laser scanning microscopy was performed on an inverted LSM510 laser scanning microscope (Carl Zeiss) (objective: LD Achroplan 40×0.6, Plan Neofluar 20×0.50, 40×0.75). For the rhodamine fluorescence excitation the 543 nm beam of a helium-neon laser with suitable beam splitters and barrier filters were used. […]

[2] = tested on: LNCaP prostate carcinoma cells; experiment: as above; assay type: cell-based, human; conditions: 20 minutes incubation, 10 μg/ml
Method: as §1, §2, §3
(§5) The confocal laser scanning microscopy was performed on an inverted LSM510 laser scanning microscope (Carl Zeiss) (objective: LD Achroplan 40×0.6, Plan Neofluar 20×0.50, 40×0.75). For the rhodamine fluorescence excitation the 543 nm beam of a helium-neon laser with suitable beam splitters and barrier filters were used. All measures were performed at least three times on living, non-fixed cells.

[3] = tested on: non-prostate tumor cell lines (colo 205 colon carcinoma, U373 glioma, U2OS osteosarcoma, HeLa cervix carcinoma, jurkat lymphoma); experiment: as above; assay type: cell-based, human; conditions: all other (non-prostate) tumor cells; 20 minutes incubation; 10 μg/ml
Method: as §1, §2, §3, §5

[4] = tested on: healthy human epithelial prostate cells (CC2555); experiment: as above; assay type: cell-based; conditions: 20 minutes incubation, 10 μg/ml
Method: as §1, §2
The compounds 1, 2 and 4 were dissolved at 1 mg/ml in pure ethanol (Riedel de Haen, Sigma-Aldrich, Taufkirchen, Germany) and then diluted in the appropriate medium for the cells to 10 μg/ml of conjugate and 1% ethanol. The cells were incubated at 37° C. in an atmosphere of 5% CO2 for 20 minutes with the compounds. […]
as §4

[5] = tested on: human prostate carcinoma (PC3) implanted into nude mice; experiment: CLSM of frozen sections of implanted tumor after intraperitoneal injection; assay type: in vivo, nude mouse
Method: (§6) PC3 and LNCaP prostate tumor cells were grown to 80% confluency, detached with Accutase™ (PAA Laboratories, Pasching, Austria) and then harvested. The cells were washed with PBS three times and then drawn up into a 30 g Micro-Fine™ insulin syringe (Becton Dickinson, Franklin Lakes, N.J., USA). Approximately 5×10^5 cells per mouse were injected into the right thigh of a male CD1 Nu/Nu mouse (Charles River, WIGA, Sulzfeld, Germany). The tumor growth was monitored and after 10 to 14 days mice bearing tumors with 2-3 mm in diameter were treated with the conjugate. 1.5 mg of the compound 1 were dissolved in 300 μl PBS containing 20% ethanol and applied intraperitoneally. After 90 minutes of circulation the mice were sacrificed and subsequently the tumors and organs were removed, embedded in Jung tissue freezing medium (Leica Instruments, Nussloch, Germany) and frozen in liquid nitrogen. Frozen sections (5 μm thickness) were prepared (LD3000 Cryotom, Leica Biosystems GmbH, Nussloch, Germany) and the rhodamine staining was analyzed by confocal laser scanning
To evaluate the in- and efflux of the rhodamine conjugated compound 1, the experiment was repeated with circulation times of 20 minutes and 180 minutes.
(§7) The experiments were repeated two times.

[6] = tested on: nude mice organs; experiment: CLSM of frozen sections of nude mice organs after intraperitoneal injection; assay type: in vivo, nude mouse; conditions: 90 minutes after intraperitoneal injection
Method: as §6, §7

[7] = tested on: PC3 prostate carcinoma; experiment: Touch prints of the tumor after intraperitoneal injection; assay type: in vivo, nude mouse; conditions: 20 minutes after intraperitoneal injection; no fixation
Method: For touch prints, the tumor of a mouse treated with the rhodamine containing compound 1 (1.5 mg intraperitoneally for 20 minutes) was excised. The tumor was cut and the cells were streaked onto a slide without fixation. The tumor cells were immediately analyzed by CLSM (without fixation).
as §7

[8] = Tolerability in the animals; assay type: in vivo; conditions: intraperitoneal injection, nude mice

## CCN(CC)c1ccc2c(-c3ccc(S(=O)(=O)NCCCCCCCCCCC=O)cc3S(=O)(=O)O)c3ccc(=[N+](CC)CC)cc-3oc2c1 [compound 1, sulforhodamine-sulfonamido-aminoundecylic aldehyde]
[1]
  uptake into the cells (rhodamine staining, CLSM): take up the compound according to the invention into the cytoplasm
[2]
  uptake into the cells (rhodamine staining, CLSM): take up the compound according to the invention into the cytoplasm
[3]
  uptake into the cells (rhodamine staining, CLSM): do not take up the compound according to the invention
[4]
  uptake into the cells (rhodamine staining, CLSM): take up the compound according to the invention into the cytoplasm
[5]; 20 minutes after intraperitoneal injection
  absorption into the cytoplasm of the prostate carcinoma cells: very well absorbed
[5]; 90 minutes after intraperitoneal injection, in comparison to lymph nodes and lung
  rhodamine fluorescence of the prostate carcinoma in frozen sections: significantly stronger red fluorescence
[5]; 180 minutes after intraperitoneal injection
  compound in the cytoplasm of the prostate carcinoma cells: efflux of the compound out of the cytoplasm
[6]
  staining of healthy prostate tissue of the mouse: almost no staining
[7]
  compound in tumor cells of touch prints: reached the cytoplasm of the prostate carcinoma cells
[8]
  tolerability: very well tolerated by the animals
